Test system: D2.mdx mice
Assay: 3-month GKT831 treatment of D2.mdx mice, muscle histology and immunofluorescence
Format: in vivo, mouse
Settings: 60 mg/kg P.O. Q.D.
Description: D2.mdx (Jax #013141) and D2.WT (Jax #000671) mice were originally obtained from Jackson Laboratory. The Nox4^KO:mdx mouse line was created by crossing the Nox4^tm1Klr knockout allele ((23); Jax #022996) onto the D2.mdx background for five generations, as previously reported (15). Following the second backcross, only Nox4^tm1Klr/+ mice homozygous for the DBA/2J polymorphism of […] were selected for continued line development (16). This is because both Nox4 and Ltbp4 are located on murine chromosome 7, and cross-over is required for both alleles to segregate together. At the completion of the backcrossing, Nox4 heterozygous breed pairs were mated to produce Nox4^WT:mdx and Nox4^KO:mdx littermates that were used in experiments. All mice were genotyped for Nox4 using primer sequences provided by Jackson Laboratory, and for Ltbp4 and mdx alleles using published genotyping primers (16).
Mice were housed 3-5 mice per cage, randomly assigned into groups, provided ad libitum access to food (NIH-31 Open formulation diet; Envigo #7917), water, and enrichment, and maintained on a 12-hour light/dark system. Once daily (Q.D.) GKT831 (purchased from Ambeed, Inc.) was administered orally (P.O.) suspended at a concentration of 36 mg/mL in a vehicle consisting of sterilized sunflower seed oil (Sigma-Aldrich). […] The GKT831 treatment group received a dose of 60 mg/kg (21). All animal procedures were approved and conducted in accordance with the University of Florida IACUC and reported using the recommendations of ARRIVE guidelines.
OCT-embedded murine tissues were cryo-sectioned at […] and fixed in 4% PFA. Immunofluorescent analysis was performed using anti-NOX4 (1:2000; Abcam #13303), anti-laminin (1:800; Novus #MAB2549), anti-vimentin (1:1000; Novus #MB300), anti-PDGFRα (1:500; R&D Systems #AF1062), anti-SMA (1:1000; Abcam #ab5694), anti-periostin (1:500, Abcam #ab14041), anti-Pax7 (1:100; R&D Systems #MAB1675), anti-Myosin X (1:800; Sigma #HPA024223) and anti-active caspase-3 (1:1000; Cell Signaling 49661) primary antibodies. Mouse tissue sections incubated with mouse monoclonal antibodies were first incubated with a solution containing donkey anti-mouse IgG AffiniPure Fab fragments (1:25 in PBS; Jackson ImmunoResearch #715-007-003) for one hour prior to blocking. Following overnight incubation in primary antibody, sections were rinsed with PBS and incubated with the appropriate species-specific secondary antibody (1:500 dilution). Lipofuscin-dependent autofluorescence was quenched using a 0.1% solution of Sudan black B following secondary antibody incubation. Slides were cover-slipped using Prolong Gold mounting reagent (Invitrogen). Images were acquired using a Leica SP8 confocal microscope. All comparative images were stained simultaneously and acquired using identical settings. Human samples were obtained through the National Disease Research Interchange (Philadelphia, PA).
Picrosirius red staining was performed as previously described (14) following decalcification of muscle sections using Formical-2000 (StatLab). Slides were visualized with a Leica DMR microscope, and images were acquired using a Leica DFC310FX camera interfaced with Leica LAS X software. All comparative images were stained simultaneously and acquired using identical settings. Images were processed and analyzed by investigators blinded to study groups using ImageJ software, as previously described (14). Image quantification for each sample consisted of the mean value from five independent and randomly-selected fields of view for each muscle section.

SMILES: CN(C)c1cccc(-c2c3c(=O)n(-c4ccccc4Cl)[nH]c3cc(=O)n2C)c1 [FTX1620, Setanaxib]
- localization of Pax7 cells (D2.mdx gastrocnemius, 3 months): largely re-localized
- muscle fibers having central nuclei (D2.mdx gastrocnemius, 3 months): increases
- muscle fibers with expression of myosin X (D2.mdx gastrocnemius, 3 months): increases
- myofibroblast numbers (PDGFRα, vimentin, SMA labeling) (D2.mdx gastrocnemius, 3 months): significantly reduced
- muscle fibrosis (picrosirius red, diaphragm and gastrocnemius) (D2.mdx mice, 3 months of treatment, evaluated at 6 months of age, vs vehicle): reduced D2.mdx muscle fibrosis
- periostin+ area (D2.mdx muscle, 3 months): significantly reduced
